Data as given in patent publication US20160264593A1 (priority 2013, published 2016).
Read-outs that look alike come from different tables or passages of the source.

Assay: Pharmacokinetic study of 153 (and metabolite endothal) in SD rats, iv and po; plasma, liver, brain
Type: in vivo
Conditions: for MRT last: read-out: MRT (0-t); for half-life: read-out: T1/2 (converted); for Tmax: read-out: Tmax
Method: The blood, liver and brain tissue samples were collected at predetermined times from rats. […] Compound were diluted shortly before use in 4% sodium bicarbonate for sterile injection (this is the standard pediatric solution of NaHCO3 with a pH of about 8.5).
Compound 153 was freshly prepared by diluting the drugs shortly before use in 4% sodium bicarbonate for sterile injection (this is the standard pediatric solution of NaHCO3 with a pH of about 8.5). The final concentrations of 153 solutions were 0.25 mg/mL. The 153 solutions were administered via iv or po route at dose volume of 5 ml/kg according to the latest body weight. Compound 157 was freshly prepared by diluting the drugs shortly before use in 4% sodium bicarbonate for sterile injection (this is the standard pediatric solution of NaHCO3 with a pH of about 8.5). The final concentrations of […] solutions were 0.3 mg/mL. The 157 solutions were administered via iv or po route at dose volume of 5 ml/kg according to the latest body weight.
Twelve (12) female SD rats per group were dosed by iv with 153 or 157. The rats were fasted overnight prior to dosing, with free access to water. Foods were withheld for 2 hours post-dose. Blood, liver and brain tissue samples in two animals each group were collected at each time point, within 10% of the scheduled time for each time point. Two extra animals were used for analytic method development.
Blood (>0.3 mL) were collected via aorta abdominalis in anaesthetic animals into tubes containing heparin at 15 min, 1, 2, 6, 10 and 24 hours after iv administration. Liver and brain tissues were collected immediately after animal death. The liver and brain tissues were excised and rinsed with cold saline to avoid blood residual. Upon collection, each sample was placed on ice and the blood samples were subsequently centrifuged (4° C., 11000 rpm, 5 min) to separate plasma. The obtained plasma, liver and brain tissue samples were stored at −70° C. until LC-MS/MS analysis.
Two (2) female SD rats per group were dosed by po with 153 or 157. The rats were fasted overnight prior to dosing, with free access to water. Foods were withheld for 2 hours post-dose. Blood samples (>0.3 mL) were collected via aorta abdominalis in anaesthetic animals into tubes containing heparin at 30 min, 1, 2, 6, 10 and 24 hours after po administration.
To each sample, 20 μL IS-D (for blank samples, 20 μL acetonitrile:water (1:1) was added) and 300 μl acetonitrile was added. The sample mixture was vortexed for approximately 3 min. After centrifugation at 10000 rpm for 5 min at 4° C., 100 μL of the upper layer was transferred to a new tube and added 200 μL 0.4% formic acid in water (pH 6.0). The mixture was vortexed for approximately 3 min before injected onto the LC/MS/MS system for analysis.
On the day of the assay, the frozen liver and brain samples were thawed unassisted at room temperature. An about 200 mg weighed sample of each thawed tissue was placed into a plastic tube with water (0.6 mL) to facilitate homogenization. Tissue processing was conducted using a homogenizer for approximately 1 min, 200 μl homogenate was transferred into a fresh Eppendorf tube. To each tube, 50 μL IS-D was added and mixed. Then 600 μl acetonitrile was added and the sample mixture was vortexed for approximately 3 min. After centrifugation at 10000 rpm for 5 min at 4° C., 400 μL of the upper layer was transferred to a new tube and evaporate the supernatant to dryness at 35° C. Reconstitute the residue with 200 μL of 0.4% formic acid in water (pH6.0), and vortex for 3 min, submit for LC-MS/MS analysis.
Frozen unknown plasma samples were completely thawed at room temperature and vortexed thoroughly. With a pipette, 50 μL of plasma was transferred into a 2.0 mL Eppendorf tube. 50 μL of 0.1N HCl and 800 μL ethyl acetate were added into each sample. The sample mixture was vortexed for approximately 3 min.

[1] = female, SD, rat, in vivo, iv, 1.25 mg/kg, iv 1.25 mg/kg, Mean, read-out: 153 liver concentration
[2] = female, SD, rat, in vivo, iv, 1.25 mg/kg, iv 1.25 mg/kg, Mean, read-out: 153 plasma concentration
[3] = female, SD, rat, in vivo, iv, 1.25 mg/kg, iv 1.25 mg/kg, Rat 1, read-out: 153 brain concentration
[4] = female, SD, rat, in vivo, iv, 1.25 mg/kg, iv 1.25 mg/kg, Rat 1, read-out: 153 liver concentration
[5] = female, SD, rat, in vivo, iv, 1.25 mg/kg, iv 1.25 mg/kg, Rat 1, read-out: 153 plasma concentration
[6] = female, SD, rat, in vivo, iv, 1.25 mg/kg, iv 1.25 mg/kg, Rat 2, read-out: 153 brain concentration
[7] = female, SD, rat, in vivo, iv, 1.25 mg/kg, iv 1.25 mg/kg, Rat 2, read-out: 153 liver concentration
[8] = female, SD, rat, in vivo, iv, 1.25 mg/kg, iv 1.25 mg/kg, Rat 2, read-out: 153 plasma concentration
[9] = female, SD, rat, in vivo, po, 1.25 mg/kg, 153 in plasma, PO 1.25 mg/kg, Mean
[10] = female, SD, rat, in vivo, po, 1.25 mg/kg, 153 in plasma, PO 1.25 mg/kg, rat 1
[11] = female, SD, rat, in vivo, po, 1.25 mg/kg, 153 in plasma, PO 1.25 mg/kg, rat 2
[12] = female, SD, rat, in vivo, po, 1.25 mg/kg, PO per title, 1.25 mg/kg, Mean, read-out: 153 liver concentration
[13] = female, SD, rat, in vivo, po, 1.25 mg/kg, PO per title, 1.25 mg/kg, Rat 2, read-out: 153 liver concentration
[14] = female, Sprague-Dawley (SD), rat, in vivo, iv, 1.25 mg/kg, Brain, 1.25 mg/kg IV, Mean
[15] = female, Sprague-Dawley (SD), rat, in vivo, iv, 1.25 mg/kg, Brain, 1.25 mg/kg IV, rat 1
[16] = female, Sprague-Dawley (SD), rat, in vivo, iv, 1.25 mg/kg, Brain, 1.25 mg/kg IV, rat 2
[17] = female, Sprague-Dawley (SD), rat, in vivo, iv, 1.25 mg/kg, Liver, 1.25 mg/kg IV, Mean
[18] = female, Sprague-Dawley, rat, in vivo, po, 1.25 mg/kg, PO per title, 1.25 mg/kg, Rat 1, read-out: 153 liver concentration

CCCOC(=O)C1C2CCC(O2)C1C(=O)N1CCN(C)CC1 (stereo not shown) [Compound 153, 3-(4-Methylpiperazine-1-carbonyl)-7-oxa-bicyclo[2,2,1]heptane-2-carboxylic acid propyl ester]
concentration at 1 h [1]: 126 ng/g | concentration at 1 h [2]: 54.7 ng/mL | concentration at 1 h [3]: 13.9 ng/g | concentration at 1 h [4]: 131 ng/g | concentration at 1 h [5]: 58 ng/mL | concentration at 1 h [6]: 14.3 ng/g | concentration at 1 h [7]: 121 ng/g | concentration at 1 h [8]: 51.4 ng/mL | concentration at 2 h (female, SD, rat, in vivo, iv, 1.25 mg/kg, iv 1.25 mg/kg, Mean, read-out: 153 brain concentration): 4.4 ng/g | concentration at 2 h [1]: 41.6 ng/g | concentration at 2 h [2]: 13.9 ng/mL | concentration at 2 h [3]: 4.05 ng/g | concentration at 2 h [4]: 42 ng/g | concentration at 2 h [5]: 14.8 ng/mL | concentration at 2 h [6]: 4.75 ng/g | concentration at 2 h [7]: 41.2 ng/g | concentration at 2 h [8]: 13 ng/mL | concentration at 6 h (female, SD, rat, in vivo, iv, 1.25 mg/kg, iv 1.25 mg/kg, 6 hr, Mean): 1.03 ng/mL | concentration at 6 h (female, SD, rat, in vivo, iv, 1.25 mg/kg, iv 1.25 mg/kg, 6 hr, Rat 1): 1.04 ng/mL | concentration at 6 h (female, SD, rat, in vivo, iv, 1.25 mg/kg, iv 1.25 mg/kg, 6 hr, Rat 2): 1.02 ng/mL | concentration at 10 h (female, SD, rat, in vivo, iv, 1.25 mg/kg, iv 1.25 mg/kg, 10 hr, Rat 2, abnormal, not included in the calculation): 9.42 ng/mL | MRT last [9]: 60.6 min | half-life [9]: 20.6 min | AUC(0-inf) [10]: 163 ng·h/mL | AUC (female, SD, rat, in vivo, po, 1.25 mg/kg, 153 in plasma, PO 1.25 mg/kg, rat 1, read-out: AUC): 163 ng·h/mL | Cmax (female, SD, rat, in vivo, po, 1.25 mg/kg, 153 in plasma, PO 1.25 mg/kg, rat 1, read-out: Cmax): 249 ng/mL | MRT last [10]: 59.2 min | half-life [10]: 19.8 min | AUC(0-inf) [11]: 164 ng·h/mL | AUC (female, SD, rat, in vivo, po, 1.25 mg/kg, 153 in plasma, PO 1.25 mg/kg, rat 2, read-out: AUC): 164 ng·h/mL | Cmax (female, SD, rat, in vivo, po, 1.25 mg/kg, 153 in plasma, PO 1.25 mg/kg, rat 2, read-out: Cmax): 229 ng/mL | MRT last [11]: 62.4 min | half-life [11]: 21.3 min | AUC (female, SD, rat, in vivo, po, 1.25 mg/kg, 153 po 1.25 mg/kg, read-out: AUC of 153 in plasma): 164 ng·h/mL | Cmax (female, SD, rat, in vivo, po, 1.25 mg/kg, 153 po 1.25 mg/kg, read-out: Cmax of 153 in plasma): 239 ng/mL | concentration at 0.25 h [12]: 762 ng/g | concentration at 0.25 h [13]: 652 ng/g | concentration at 1 h [12]: 126 ng/g | concentration at 1 h (female, SD, rat, in vivo, po, 1.25 mg/kg, PO per title, 1.25 mg/kg, Rat 1, read-out: 153 liver concentration): 131 ng/g | concentration at 1 h [13]: 121 ng/g | AUC(0-t) (female, SD, rat, in vivo, 153 iv 1.25 mg/kg, read-out: AUClast of 153 in plasma): 295 ng·h/mL | bioavailability (female, SD, rat, in vivo, 153 po vs iv 1.25 mg/kg, read-out: BA (bioavailability) of 153): 55.4% | Cmax (female, Sprague-Dawley (SD), rat, in vivo, iv, 1.25 mg/kg, Brain, 1.25 mg/kg IV, Mean, read-out: Cmax): 42.7 ng/g | MRT last [14]: 58.3 min | half-life [14]: 35.8 min | Cmax (female, Sprague-Dawley (SD), rat, in vivo, iv, 1.25 mg/kg, Brain, 1.25 mg/kg IV, rat 1, read-out: Cmax): 45 ng/g | MRT last [15]: 56 min | half-life [15]: 33.7 min | Cmax (female, Sprague-Dawley (SD), rat, in vivo, iv, 1.25 mg/kg, Brain, 1.25 mg/kg IV, rat 2, read-out: Cmax): 40.3 ng/g | MRT last [16]: 60.6 min | half-life [16]: 37.7 min | Cmax (female, Sprague-Dawley (SD), rat, in vivo, iv, 1.25 mg/kg, Liver, 1.25 mg/kg IV, Mean, read-out: Cmax): 762 ng/g | MRT last [17]: 47.1 min | half-life [17]: 37.6 min | half-life (female, Sprague-Dawley (SD), rat, in vivo, iv, 1.25 mg/kg, Liver, 1.25 mg/kg IV, rat 2): 38.6 min | AUC(0-inf) (female, Sprague-Dawley (SD), rat, in vivo, po, 1.25 mg/kg, 153 in plasma, PO 1.25 mg/kg, Mean): 164 ng·h/mL | AUC (female, Sprague-Dawley (SD), rat, in vivo, po, 1.25 mg/kg, 153 in plasma, PO 1.25 mg/kg, Mean, read-out: AUC): 164 ng·h/mL | Cmax (female, Sprague-Dawley (SD), rat, in vivo, po, 1.25 mg/kg, 153 in plasma, PO 1.25 mg/kg, Mean, read-out: Cmax): 239 ng/mL | Tmax (female, Sprague-Dawley (SD), rat, in vivo, 153 in plasma, PO 1.25 mg/kg, Mean): 30 min | Tmax (female, Sprague-Dawley (SD), rat, in vivo, Liver, 1.25 mg/kg IV, Mean): 15 min | concentration at 0.25 h [18]: 872 ng/g | concentration at 2 h (female, Sprague-Dawley, rat, in vivo, po, 1.25 mg/kg, PO per title, 1.25 mg/kg, Mean, read-out: 153 liver concentration): 41.6 ng/g | concentration at 2 h [18]: 42 ng/g | concentration at 2 h (female, Sprague-Dawley, rat, in vivo, po, 1.25 mg/kg, PO per title, 1.25 mg/kg, Rat 2, read-out: 153 liver concentration): 41.2 ng/g | 153 liver concentration (iv 1.25 mg/kg, 6 hr, Rat 1): BLQ | 153 liver concentration (iv 1.25 mg/kg, 6 hr, Rat 2): BLQ | 153 liver concentration (iv 1.25 mg/kg, 10 hr, Rat 1): BLQ
